This note sets out measurements from article PMC10222548, “Semisynthesis, Biological Evaluation and Molecular Docking Studies of Barbatic Acid Derivatives as Novel Diuretic Candidates” (Molecules, 2023).

Bounds are passed on as bounds.

Data set [1] deals with Cl^− transport, MDCK cells. In words: In vitro diuretic activity: Cl^− transport inhibition, Transwell chamber seeded with MDCK cells. The class given is cell-based, canine. To be noted: Canis lupus familiaris; 100 μmol/L, MDCK cells in Transwell; mean ± SD of three replicates; negative = promotion; read-out: Transport Inhibition Rate (%) Cl^−. An excerpt:
(§1) The traditional methods for screening diuretic drugs are mostly in vivo experiments with mice, which have a long experimental cycle and are not suitable for screening massive compounds. As we know, the generation and excretion of urine involve two processes: glomerular filtration and tubular reabsorption. Reabsorption refers to the process in which the renal tubular epithelial cells transport water and certain solutes from the tubular fluid (urine) partially or entirely back into the bloodstream. Then, 99% of the water in the original urine filtered by the glomerulus is reabsorbed, and the transport of Na^+ and Cl^− plays an important role in this process. Thiazide and furosemide diuretics exert their diuretic effects by inhibiting the transport of Na^+ and Cl^−, which affects the tubular reabsorption of the original urine. Based on this principle, we established a new type of cell screening model for diuretic active drugs. Madin–Darby canine kidney (MDCK) cells were inoculated into a Transwell chamber to simulate the renal tubules. This cell model could transport and absorb external NaCl, simulating the reabsorption phenomenon. […] The effectiveness of this model was confirmed by the validation of hydrochlorothiazide, which is a commercially available diuretic drug and could inhibit the transport of Na^+ and Cl^− in renal tubules.
(§2) Generally, the transport of Na^+ and Cl^− plays an important role in glomerular filtration and tubular reabsorption. […] For example, inhibition rates of transport of 6a and 6c were over 30%, and had better inhibitory ability than barbatic acid. […] When ethyl, propyl, and benzyl were substituted on R^1, the introduction of any group could not enhance the inhibitory activity of barbatic acid, such as 6h–u and 6j′–6p′.
(§3) Log-phase MDCK cells were seeded in the upper chambers of Transwell plates (4 × 10^4 cells/well), and 800 µL of complete culture medium was added to the lower chambers. After 24 h of incubation at 37 °C, the electrical resistance of the upper chamber cells was measured one by one (R = (Rcell − Rblank) × 0.04π). When the electrical resistance of the upper chamber cells reached ≥300 Ω cm^2, the upper chamber medium was removed and replaced with the drug solution. The blank group (given normal saline), the experimental group (1, 6a–6p′, 100 μmol/L), and the hydrochlorothiazide group (100 μmol/L) were set, and each well was treated with 100 µL of the corresponding solution. The cells were then further incubated for 24 h. After that, the upper and lower chamber fluids were removed, and 200 µL of NaCl solution (15 mg/mL) was added to the upper chamber, while 800 µL of DMEM was added to the lower chamber for continued incubation. At 0.5, 1, 2, and 3 h, 50 µL of the lower chamber fluid was taken and the OD values were measured using Na^+ and Cl^− detection kits. The transport inhibition rate (%) was calculated as follows: transport inhibition rate (%) = (ODblank − ODexperimental)/ODblank × 100%.

Data set [2] deals with C2O4^2− transport, MDCK cells. The data set can be described thus: In vitro litholytic activity: C2O4^2− transport inhibition, Transwell chamber with MDCK cells. The class given is cell-based, canine. To be noted: for inhibition at 100 µM: Canis lupus familiaris, 100 μmol/L, MDCK cells in Transwell, mean ± SD of three replicates, read-out: Transport Inhibition Rate (%) C2O4^2−; for C2O4^2− transport inhibition activity at different time periods: 1, 2, and 3 h (Figure 4). How it is done: (§4) On the other hand, all compounds had little inhibitory effect on Ca^2+ transport. The structure–activity relationships (SARs) were also observed. […] On the other hand, the introduction of the benzyl group to the R^1 or R^2 of barbatic acid could not lead to more promising compounds, such as 6a, 6n, 6u, 6b′, and 6i′–p′.
(§5) Logarithmic-phase DMCK cells were inoculated in the upper chamber of a Transwell plate (4 × 10^4 cells/well). Then, 800 µL of complete culture medium was added to the lower chamber, and the cells were incubated for 24 h until they adhered to the wall. The resistance value of the upper chamber cells was measured one by one at 37 °C (R = (Rcell − Rblank) × 0.04π). When the resistance value of the upper chamber cells was ≥300 Ω cm^2, the upper chamber liquid was discarded for drug administration. A control group (given physiological saline) and an experimental group (1, 6a–6p′, 100 μmol/L) were set up, and 100 µL of each drug was administered per well, followed by continued incubation for 24 h. Then, the upper and lower chamber liquids were discarded, and 200 µL of CaC2O4 (30 mmol/L) solution was added to the upper chamber, and 800 µL of PBS solution was added to the lower chamber for continued incubation. At 0.5, 1, 2, and 3 h, 50 µL of the lower chamber liquid was taken and then tested using the Ca^2+ and C2O4^2− detection kits and the following detection methods. The transport inhibition rate (%) = (ODblank − ODexperimental)/ODblank × 100%.

Data set [3] deals with Na^+ transport, MDCK cells. In words: In vitro diuretic activity: Na^+ transport inhibition, Transwell chamber seeded with MDCK cells. The class given is cell-based, canine. To be noted: Canis lupus familiaris, MDCK, 100 μmol/L, MDCK cells in Transwell; mean ± SD of three replicates; negative = promotion; read-out: Transport Inhibition Rate (%) Na^+.
Text: as §1, §2, §3

Data set [4] has as its system Ca^2+ transport, MDCK cells. The data set can be described thus: In vitro litholytic activity: Ca^2+ transport inhibition, Transwell chamber with MDCK cells. The class given is cell-based, canine. The following applies: Canis lupus familiaris, 100 μmol/L, mean ± SD of three replicates, read-out: Transport Inhibition Rate (%) Ca^2+. How it is done:
as §4, §5

Another data set deals with MDCK cells. The data set can be described thus: MTT cytotoxicity assay on MDCK cells. The class given is cell-based, canine. To be noted: Canis lupus familiaris, 100 μmol/L, 24 h, mean ± SD of three replicates, read-out: Growth Inhibition Rate (%). How it is done: First, we used the MTT method to perform cytotoxicity of barbatic acid derivatives (1, 6a–6p′) on MDCK cells at the concentration of 100 μmol/L, and the results are shown in Table 1.
The MTT assay was used to evaluate the cytotoxicity of the target compounds on DMCK cells. Logarithmic-growth-phase DMCK cells were seeded in a 96-well plate (10^4 cells/well) and incubated in a cell culture incubator for 24 h. The culture medium was then removed and replaced with a drug-containing medium for the treatment groups (1, 6a–6p′, 100 μmol/L), normal saline for the control group, or hydrochlorothiazide (100 μmol/L) for the positive control group. Each well was treated with 100 µL of the respective solution and incubated for an additional 24 h. The culture medium was then removed and replaced with a DMEM solution containing 20 µL of MTT (5 mg/mL). After incubating for 4 h, the liquid in each well was removed and replaced with 150 µL of DMSO, which was shaken for 10 min to ensure thorough mixing. The absorbance at 490 nm was measured to determine the optical density (OD) of each well. Cell growth inhibition rate (%) = (ODBlank − ODExperimental)/ODBlank × 100%.

Take `CCOc1cc(C)c(C(=O)Oc2cc(C)c(C(=O)OC)c(O)c2C)c(O)c1C` [Compound 6h, 3-hydroxy-4-(methoxycarbonyl)-2,5-dimethylphenyl 4-ethoxy-2-hydroxy-3,6-dimethylbenzoate]: the melting point (usually the temperature of the solid-liquid transition) was 152 to 155 °C. For the same compound, the inhibition (in general, the drop in the measured response relative to a control, in per cent) at 100 µM in data set [1] was determined as 2.19 ± 0.55%. In addition, the inhibition at 100 µM in data set [2] was -4.23 ± 4.77%. In addition, in data set [3], the inhibition at 100 µM was -7.67 ± 1%. Further, the inhibition at 100 µM in data set [4] is -3.85 ± 0.19%. For the same compound, the inhibition at 100 µM with MDCK cells was under 0%.

As for `CCOC(=O)c1c(C)cc(OC(=O)c2c(C)cc(OCC)c(C)c2O)c(C)c1O` [Compound 6i, 4-(ethoxycarbonyl)-3-hydroxy-2,5-dimethylphenyl 4-ethoxy-2-hydroxy-3,6-dimethylbenzoate], the melting point is 187 to 190 °C. Also, in data set [1], the inhibition at 100 µM is -2.13 ± 1.9%. In data set [2], the inhibition at 100 µM stood at 54 ± 10.4%. Moreover, the inhibition at 100 µM in data set [3] was found to be 5.2 ± 3.6%. In addition, in data set [4], the inhibition at 100 µM turned out to be 1.71 ± 0.13%. In the data set with MDCK cells, the inhibition at 100 µM was under 0%.

The compound `CCCOC(=O)c1c(C)cc(OC(=O)c2c(C)cc(OCC)c(C)c2O)c(C)c1O` [Compound 6j, 3-hydroxy-2,5-dimethyl-4-(propoxycarbonyl)phenyl 4-ethoxy-2-hydroxy-3,6-dimethylbenzoate] had a melting point of 154 to 157 °C. Besides, the inhibition at 100 µM in data set [1] was determined as 5.75 ± 1.1%. In data set [2], the “C2O4^2− transport inhibition activity at different time periods” value is “very strong and continual inhibitory activities”; the inhibition at 100 µM was found to be 42.3 ± 1.66%. Moreover, in data set [3], the inhibition at 100 µM stood at 5.2 ± 3.6%. The inhibition at 100 µM in data set [4] worked out at 4.45 ± 0.29%. Besides, the inhibition at 100 µM with MDCK cells was under 0%.

For `CCOc1cc(C)c(C(=O)Oc2cc(C)c(C(=O)OC(C)C)c(O)c2C)c(O)c1C` [Compound 6k, 3-hydroxy-4-(isopropoxycarbonyl)-2,5-dimethylphenyl 4-ethoxy-2-hydroxy-3,6-dimethylbenzoate], the melting point is 125 to 128 °C. The inhibition at 100 µM in data set [1] was -7.1 ± 1%. Also, the inhibition at 100 µM in data set [2] was -5.12 ± 1.75%. For the same compound, in data set [3], the inhibition at 100 µM was -62.5 ± 1.95%. Moreover, the inhibition at 100 µM in data set [4] was 1.2 ± 0.13%. The inhibition at 100 µM in the data set with MDCK cells was under 0%.

Take `CCOc1cc(C)c(C(=O)Oc2cc(C)c(C(=O)OCC#N)c(O)c2C)c(O)c1C` [Compound 6m, 4-((cyanomethoxy)carbonyl)-3-hydroxy-2,5-dimethylphenyl 4-ethoxy-2-hydroxy-3,6-dimethylbenzoate]: the melting point is 160 to 163 °C. The inhibition at 100 µM in data set [1] was -29.3 ± 1.75%. In data set [2], the “C2O4^2− transport inhibition activity at different time periods” value was “very strong and continual inhibitory activities”; the inhibition at 100 µM stood at 61 ± 2.75%. Further, in data set [3], the inhibition at 100 µM was -2.99 ± 6%. For the same compound, in data set [4], the inhibition at 100 µM was determined as 2.57 ± 0.1%. Further, the inhibition at 100 µM in the data set with MDCK cells is under 0%.

`CCOc1cc(C)c(C(=O)Oc2cc(C)c(C(=O)OCc3ccccc3)c(O)c2C)c(O)c1C` [Compound 6n, benzyl 4-(4-ethoxy-2-hydroxy-3,6-dimethylbenzoyloxy)-2-hydroxy-3,6-dimethylbenzoate]: the melting point fell in the range of 129 to 131 °C. Also, the inhibition at 100 µM in data set [1] was -4.47 ± 0.2%. Also, the inhibition at 100 µM in data set [2] worked out at 0.11 ± 0.7%. Moreover, the inhibition at 100 µM in data set [3] was -3.98 ± 0.15%. For the same compound, the inhibition at 100 µM in data set [4] was -2.13 ± 0.3%. In addition, the inhibition at 100 µM in the data set with MDCK cells is 0.36 ± 0.8%.

`CCCOc1cc(C)c(C(=O)Oc2cc(C)c(C(=O)OC)c(O)c2C)c(O)c1C` [Compound 6o, 3-hydroxy-4-(methoxycarbonyl)-2,5-dimethylphenyl 2-hydroxy-3,6-dimethyl-4-propoxybenzoate] registered a melting point of 110 to 113 °C. In addition, the inhibition at 100 µM in data set [1] is -2.8 ± 1.2%. In data set [2], the inhibition at 100 µM came out at 5.6 ± 3.85%. The inhibition at 100 µM in data set [3] was -2.68 ± 0.45%. For the same compound, the inhibition at 100 µM in data set [4] is 4.43 ± 0.13%. Moreover, the inhibition at 100 µM in the data set on MDCK cells is under 0%.

For `CCCOc1cc(C)c(C(=O)Oc2cc(C)c(C(=O)OCC)c(O)c2C)c(O)c1C` [Compound 6p, 4-(ethoxycarbonyl)-3-hydroxy-2,5-dimethylphenyl 2-hydroxy-3,6-dimethyl-4-propoxybenzoate], the melting point fell in the range of 160 to 163 °C. The inhibition at 100 µM in data set [1] is -18.38 ± 0.15%. Further, the inhibition at 100 µM in data set [2] worked out at 4.29 ± 0.24%. In addition, in data set [3], the inhibition at 100 µM is -12.2 ± 0.45%. Further, the inhibition at 100 µM in data set [4] was found to be 4.79 ± 0.46%. For the same compound, in the data set with MDCK cells, the inhibition at 100 µM is under 0%.

Compound `CCCOC(=O)c1c(C)cc(OC(=O)c2c(C)cc(OCCC)c(C)c2O)c(C)c1O` [Compound 6q, 3-hydroxy-2,5-dimethyl-4-(propoxycarbonyl)phenyl 2-hydroxy-3,6-dimethyl-4-propoxybenzoate] yielded a melting point of 126 to 130 °C. Further, the inhibition at 100 µM in data set [1] turned out to be 11.6 ± 2.2%. Besides, the inhibition at 100 µM in data set [2] was -26 ± 4.17%. In addition, in data set [3], the inhibition at 100 µM amounted to 9.39 ± 0.25%. For the same compound, in data set [4], the inhibition at 100 µM was 4.61 ± 0.32%. In addition, the inhibition at 100 µM in the data set on MDCK cells is under 0%.

In turn, `C=CCOC(=O)c1c(C)cc(OC(=O)c2c(C)cc(OCCC)c(C)c2O)c(C)c1O` [Compound 6r, allyl 2-hydroxy-4-(2-hydroxy-3,6-dimethyl-4-propoxybenzoyloxy)-3,6-dimethylbenzoate] yielded a melting point of 98 to 111 °C. Besides, the inhibition at 100 µM in data set [1] is -10.3 ± 1.4%. Also, the inhibition at 100 µM in data set [2] turned out to be 9.67 ± 4.6%. The inhibition at 100 µM in data set [3] came to 1.14 ± 1.25%. In addition, in data set [4], the inhibition at 100 µM is 5.85 ± 0.36%. The inhibition at 100 µM in the data set on MDCK cells was under 0%.

The compound `CCCOc1cc(C)c(C(=O)Oc2cc(C)c(C(=O)OCC#N)c(O)c2C)c(O)c1C` [Compound 6s, 4-((cyanomethoxy)carbonyl)-3-hydroxy-2,5-dimethylphenyl 2-hydroxy-3,6-dimethyl-4-propoxybenzoate] displayed a melting point of 135 to 138 °C. The inhibition at 100 µM in data set [1] was -6.21 ± 0.3%. Besides, the inhibition at 100 µM in data set [2] was 15.7 ± 1.13%. Further, the inhibition at 100 µM in data set [3] was -27.9 ± 0.5%. Further, the inhibition at 100 µM in data set [4] is -1.74 ± 0.12%. In the data set on MDCK cells, the inhibition at 100 µM was under 0%.
